# Tests used:
# [1] = Redox potential of the mediator; assay type: physicochemical
# Description: Another specific mediator is [Os(Mebpy)2Pic]^+/2+.
# GOX = GOX (Aspergillus niger, UniProt P13006); settings: 3+ form of mediator
# GOX, sequence (P13006 17-605, species assumed): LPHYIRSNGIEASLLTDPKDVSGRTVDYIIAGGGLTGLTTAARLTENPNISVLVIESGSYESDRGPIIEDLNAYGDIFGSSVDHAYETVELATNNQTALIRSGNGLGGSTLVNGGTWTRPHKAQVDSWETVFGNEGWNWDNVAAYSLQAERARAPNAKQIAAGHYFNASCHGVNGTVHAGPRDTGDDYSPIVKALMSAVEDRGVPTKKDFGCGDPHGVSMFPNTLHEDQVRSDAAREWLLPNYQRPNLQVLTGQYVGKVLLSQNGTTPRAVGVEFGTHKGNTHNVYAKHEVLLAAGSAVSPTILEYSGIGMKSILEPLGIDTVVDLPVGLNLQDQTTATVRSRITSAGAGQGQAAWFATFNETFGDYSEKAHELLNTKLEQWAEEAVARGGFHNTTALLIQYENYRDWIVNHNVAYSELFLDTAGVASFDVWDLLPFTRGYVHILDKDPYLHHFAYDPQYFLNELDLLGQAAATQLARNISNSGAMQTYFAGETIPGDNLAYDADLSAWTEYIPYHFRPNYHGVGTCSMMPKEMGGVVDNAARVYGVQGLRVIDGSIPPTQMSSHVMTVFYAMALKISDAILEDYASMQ
substance,measurement,setting,value
[Os(MeBpy)2(Im)2]^2+/3+,redox potential E^o,[1],140-154 mV
same,second order rate constant of electron transfer from GOX to the 3+ mediator,GOX,approximately 4.0×10^5 M^−1s^−1
